Activity calls are given as the source filed them. No cut-off for these calls is given here.

Among the data in ChEMBL document CHEMBL1158606, “Synthesis and molecular modeling studies of 3-chloro-4-substituted-1-(8-hydroxy-quinolin-5-yl)-azetidin-2-ones as novel anti-filarial agents” (2010) are Activity values, retold here.

One experiment relates to Brugia malayi. The experiment can be described thus: Antifilarial activity against Brugia malayi assessed as loss of motility at 60 ng/ml after 48 hrs by MTT assay. It is filed as functional. On the technique in general: Tetrazolium assays rely on reduction of a dye to a coloured formazan, in cell work by metabolically active cells.
On to `O=C1C(Cl)C(c2ccccc2)N1c1ccc(O)c2ncccc12` (stereo not given), for which the outcome was inactive.
Still for that read-out and setting: with `O=C1C(Cl)C(c2ccc(F)cc2)N1c1ccc(O)c2ncccc12` (stereo not given) the figure was 12%; with `COc1ccc(C2C(Cl)C(=O)N2c2ccc(O)c3ncccc23)cc1` (stereo not given), 91%; with `O=C1C(Cl)C(c2ccc(Br)cc2)N1c1ccc(O)c2ncccc12` (stereo not given), 3%.
The same measure, in the same setting: with `O=C1C(Cl)C(c2ccc(Cl)cc2)N1c1ccc(O)c2ncccc12` (stereo not given) the figure was 19%; with `CC1C(Cl)C(=O)N1c1ccc(O)c2ncccc12` (stereo not given), 67%.

The next experiment concerns Brugia malayi. The experiment can be described thus: Antifilarial activity against Brugia malayi assessed as loss of motility at 40 ng/ml after 48 hrs by MTT assay. It is filed as functional.
For `O=C1C(Cl)C(c2ccccc2)N1c1ccc(O)c2ncccc12` (stereo not given), the result was inactive.
Same read-out and setting: with `O=C1C(Cl)C(c2ccc(F)cc2)N1c1ccc(O)c2ncccc12` (stereo not given) the entry was “inactive”; with `COc1ccc(C2C(Cl)C(=O)N2c2ccc(O)c3ncccc23)cc1` (stereo not given), 76%.
The same measure, in the same setting: with `O=C1C(Cl)C(c2ccc(Br)cc2)N1c1ccc(O)c2ncccc12` (stereo not given) the entry was “inactive”.
Still for that read-out and setting: with `O=C1C(Cl)C(c2ccc(Cl)cc2)N1c1ccc(O)c2ncccc12` (stereo not given) the figure was 10%; with `CC1C(Cl)C(=O)N1c1ccc(O)c2ncccc12` (stereo not given), 61%.

In another experiment the test system is Brugia malayi. The experiment can be described thus: Antifilarial activity against Brugia malayi assessed as loss of motility at 100 ng/ml after 48 hrs by MTT assay. It is filed as functional.
For the molecule `O=C1C(Cl)C(c2ccccc2)N1c1ccc(O)c2ncccc12` (stereo not given), the Activity is listed as 2%.
Same read-out and setting: with `O=C1C(Cl)C(c2ccc(F)cc2)N1c1ccc(O)c2ncccc12` (stereo not given) the figure was 37%.
Same read-out and setting: with `COc1ccc(C2C(Cl)C(=O)N2c2ccc(O)c3ncccc23)cc1` (stereo not given) the figure was 91%; with `O=C1C(Cl)C(c2ccc(Br)cc2)N1c1ccc(O)c2ncccc12` (stereo not given), 23%.
Same read-out and setting: with `O=C1C(Cl)C(c2ccc(Cl)cc2)N1c1ccc(O)c2ncccc12` (stereo not given) the figure was 59%; with `CC1C(Cl)C(=O)N1c1ccc(O)c2ncccc12` (stereo not given), 81%.

A further experiment relates to Brugia malayi. The experiment can be described thus: Antifilarial activity against Brugia malayi assessed as loss of motility at 20 ng/ml after 48 hrs by MTT assay. It is filed as functional.
With `O=C1C(Cl)C(c2ccccc2)N1c1ccc(O)c2ncccc12` (stereo not given), the outcome was inactive.
Still for that read-out and setting: with `O=C1C(Cl)C(c2ccc(F)cc2)N1c1ccc(O)c2ncccc12` (stereo not given) the entry was “inactive”.
The same measure, in the same setting: with `COc1ccc(C2C(Cl)C(=O)N2c2ccc(O)c3ncccc23)cc1` (stereo not given) the figure was 67%.
Turning to `O=C1C(Cl)C(c2ccc(Br)cc2)N1c1ccc(O)c2ncccc12` (stereo not given), the result was inactive.
Still for that read-out and setting: with `O=C1C(Cl)C(c2ccc(Cl)cc2)N1c1ccc(O)c2ncccc12` (stereo not given) the entry was “inactive”; with `CC1C(Cl)C(=O)N1c1ccc(O)c2ncccc12` (stereo not given), 53%.

The next experiment has as its system Brugia malayi. As to the kind of experiment: Antifilarial activity against Brugia malayi assessed as loss of motility at 80 ng/ml after 48 hrs by MTT assay. It counts as functional.
In the case of `O=C1C(Cl)C(c2ccccc2)N1c1ccc(O)c2ncccc12` (stereo not given), the Activity was found to be 2%.
For the molecule `O=C1C(Cl)C(c2ccc(F)cc2)N1c1ccc(O)c2ncccc12` (stereo not given), the Activity turned out to be 26%.
On the same count and under the same terms, with `COc1ccc(C2C(Cl)C(=O)N2c2ccc(O)c3ncccc23)cc1` (stereo not given) the figure was 91%.
On the same count and under the same terms, with `O=C1C(Cl)C(c2ccc(Br)cc2)N1c1ccc(O)c2ncccc12` (stereo not given) the figure was 16%; with `O=C1C(Cl)C(c2ccc(Cl)cc2)N1c1ccc(O)c2ncccc12` (stereo not given), 36%; with `CC1C(Cl)C(=O)N1c1ccc(O)c2ncccc12` (stereo not given), 76%.
